Measurements published in patent US8658801B2, “Pesticides containing a bicyclic bisamide structure” (Syngenta Crop Protection, LLC, priority 2006, dated 2014).

Tests used:
[1] = system: Spodoptera littoralis (Egyptian Cotton Leafworm); assay: Example B1: activity against Spodoptera littoralis, larvicide, feeding/residual contact, preventive (cotton leaf discs); format: in vivo; conditions: foliar, 72 h, 3 days after treatment, L1 larvae
From the text: Activity Against Spodoptera littoralis (Egyptian Cotton Leafworm)
(§1) (Larvicide, Feeding/Residual Contact Activity, Preventive)
The samples are checked for mortality, repellent effect, feeding behaviour, and growth regulation 3 days after treatment. In this test, compounds listed in Table P above show good activity. In particular compounds P.1, P.2, P.3, P.4, P.5, P.6, P.7, P.9, P.10, P.11, P.12, P.13, P.15, P.16, P.17, P.18, P.19, P.20, P.21, P.22, P.23, P.24, P.25, P.26, P.27, P.28, P.29, P.30, P.31, P.32, P.33, P.34, P.35, P.36, P.37, P.38, P.39, P.40, P.41, P.42, P.43, P.44, P.45, P.46, P.47, P.48, P.49, P.50, P.51, P.52, P.53, P.54, P.55, P.56, P.57, P.58, P.59, P.60, P.61, P.63, P.64, P.67, P.68 and P.70 show an activity of over 80% at a concentration of 400 ppm.

[2] = system: Heliothis virescens (Tobacco Budworm); assay: Example B2: activity against Heliothis virescens, ovo-larvicide, feeding/contact, curative; format: in vivo; conditions: 96 h, 4 days incubation, eggs 0-24 h old
Description: Activity Against Heliothis virescens (Tobacco Budworm)
(Ovo-Larvicide, Feeding/Contact Activity, Curative)
Eggs (0-24 h old) are placed in 24-well microtiter plate on artificial diet and treated with test solutions by pipetting. After an incubation period of 4 days, samples are checked for egg mortality, larval mortality, and growth regulation.

[3] = system: Plutella xylostella (Diamond Back Moth); assay: Example B3: Plutella xylostella, larvicide, feeding/residual contact, preventive (artificial diet MTP); format: in vivo; conditions: 120 h, 5 days incubation, L2 larvae
Description: Plutella xylostella (Diamond Back Moth)
as §1
24-well microtiter plate (MTP) with artificial diet is treated with test solutions by pipetting. After drying, the MTP's are infested with larvae (L2)(10-15 per well). After an incubation period of 5 days, samples are checked for larval mortality, antifeedant and growth regulation. In this test, compounds listed in Table P above show good activity. In particular compounds P.1, P.2, P.3, P.4, P.5, P.6, P.7, P.9, P.10, P.11, P.12, P.13, P.15, P.16, P.17, P.18, P.19, P.20, P.21, P.22, P.23, P.25, P.26, P.27, P.28, P.29, P.30, P.31, P.32, P.33, P.34, P.35, P.36, P.37, P.38, P.39, P.40, P.41, P.42, P.43, P.44, P.46, P.47, P.48, P.49, P.50, P.51, P.52, P.53, P.54, P.55, P.56, P.57, P.58, P.59, P.60, P.61, P.63, P.64, P.67, P.68, P.69 P.70, P.72, P.74, P.77, P78 and P.79 show an activity of over 80% at a concentration of 400 ppm.

[4] = system: Diabrotica balteata (Corn Root Worm); assay: Example B4: Diabrotica balteata, larvicide, feeding/residual contact, preventive; format: in vivo; conditions: 120 h, 5 days incubation, L2 larvae
Description: Diabrotica balteata (Corn Root Worm)
as §1
After drying, the MTP's are infested with larvae (L2)(6-10 per well). After an incubation period of 5 days, samples are checked for larval mortality, antifeedant and growth regulation. In this test, compounds listed in Table P above show good activity. In particular compounds P.1, P.2, P.5, P.6, P.10, P.11, P.12, P.13, P.15, P.16, P.17, P.18, P.19, P.24, P.25, P.27, P.28, P.29, P.30, P.31, P.33, P.34, P.35, P.37, P.38, P.39, P.42, P.43, P.44, P.45, P.46, P.47, P.48, P.49, P.50, P.52, P.53, P.65, P.67, P.68, P.69, P.70, P.71, P.72, P.75, P.78, and P.79 show an activity of over 80% at a concentration of 400 ppm.

[5] = system: Frankliniella occidentalis (Western Flower Thrips); assay: Example B9: activity against Frankliniella occidentalis (bean leaf discs or bean plants); format: in vivo; conditions: foliar, 6 days (leaf discs) or 14 days (plants) after infestation
Description: Activity Against Frankliniella occidentalis (Western Flower Thrips)
Bean leaf discs on agar in petri dishes or bean plants in a spray chamber are treated with diluted test solutions. After drying leaf discs are cut and placed in plastic cups on the surface of an agar layer and infested with mixed population. 6 days (leaf discs) or 14 days (plants) after the infestation, samples are checked for reduction of treated population and compared to the non treated population.

[6] = system: Aphis craccivora (Pea Aphid); assay: Example B11: activity against Aphis craccivora, mixed population, systemic/feeding; format: in vivo; conditions: 144 h, 6 days, roots in test solution (systemic)
From the text: Activity Against Aphis craccivora (Pea Aphid)
(Mixed Population, Systemic/Feeding)
6 days later, samples are checked for mortality.

[7] = system: Thrips tabaci (Onion Thrips); assay: Example B7: activity against Thrips tabaci, mixed population, feeding/residual contact, preventive; conditions: 144 h, read-out: activity
[8] = system: Myzus persicae (Green Peach Aphid); assay: Example B6: activity against Myzus persicae, mixed population, systemic/feeding, curative (pea seedling roots); conditions: 144 h, read-out: activity
[9] = system: Myzus persicae (Green Peach Aphid); assay: Example B5: activity against Myzus persicae, mixed population, feeding/residual contact, preventive (sunflower leaf discs); conditions: foliar, 144 h, read-out: activity

Measured: pest or weed control at 400 ppm

CSCC(C)(C)NC(=O)c1c(NC(=O)c2cc(C(F)(F)F)nn2-c2ncccc2Cl)c(Cl)cc2cn[nH]c12 [P.13]
> 80%: all assays above

CC(C)(CS(C)(=O)=O)NC(=O)c1c(NC(=O)c2cc(C(F)(F)F)nn2-c2ncccc2Cl)c(Cl)cc2cn[nH]c12 [P.15]
not listed: [6] | [7]
> 80%: all other assays above

CNC(=O)c1c(NC(=O)c2cc(C(F)(F)F)nn2-c2ncccc2Cl)c(Br)cc2cn[nH]c12 [P.17]
not listed: [6] | [7]
> 80%: all other assays above

CNC(=O)c1c(NC(=O)c2cc(C(F)(F)F)nn2-c2ncccc2Cl)c(C)cc2nc(C)ccc12 [P.22]
> 80%: [1] | [2] | [3] | [5]

O=C(NC1(C2CC2)CC1)c1c(NC(=O)c2cc(Cl)nn2-c2ncccc2Cl)c(Cl)cc2cn[nH]c12 [P.45, 5-chloro-6-{[5-chloro-2-(3-chloro-pyridin-2-yl)-2H-pyrazole-3-carbonyl]-amino}-1H-indazole-7-carboxylic acid bicyclopropyl-1-ylamide]
not listed: [2] | [3]
> 80%: all other assays above

O=C(NC1(C2CC2)CC1)c1c(NC(=O)c2cc(OCC(F)(F)F)nn2-c2ncccc2Cl)c(Cl)cc2cn[nH]c12 [P.48]
not listed: [6]
> 80%: all other assays above

COc1cc(C(=O)Nc2c(C#N)cc3cn[nH]c3c2C(=O)NC2(C3CC3)CC2)n(-c2ncccc2Cl)n1 [P.53]
not listed: [5] | [6]
> 80%: all other assays above

COc1cc(C(=O)Nc2c(Br)cc3cn[nH]c3c2C(=O)NC(C)(C)CS(C)(=O)=O)n(-c2ncccc2Cl)n1 [P.54]
not listed: [4]
> 80%: all other assays above

Cc1cc2cn[nH]c2c(C(=O)NC2(C3CC3)CC2)c1NC(=O)c1cc(OCC(F)(F)F)nn1-c1ncccc1Cl [P.70, 6-{[2-(3-chloro-pyridin-2-yl)-5-(2,2,2-trifluoro-ethoxy)-2H-pyrazole-3-carbonyl]-amino}-5-methyl-1H-indazole-7-carboxylic acid bicyclopropyl-1-ylamide]
not listed: [6]
> 80%: all other assays above
